Assay results from ChEMBL document CHEMBL5550204, “Discovery of ZJCK-6-46: A Potent, Selective, and Orally Available Dual-Specificity Tyrosine Phosphorylation-Regulated Kinase 1A Inhibitor for the Treatment of Alzheimer's Disease” (J Med Chem, 2024).
Activity calls are given as the source filed them. The calls are words filed in the database; no cut-off is given here.

How the values were obtained:
[1] = Acute toxicity in C57BL/6 mouse assessed as change in body weight at 500 mg/kg,po observed after 14 days; format: organism-based; conditions: in vivo, 336 h, time 14 day
CYP2E1 = CYP2E1 (Homo sapiens, UniProt P05181); assay: Inhibition of CYP2E1 in human liver microsomes using chlorzoxazone as substrate at 10 uM preincubated for 10 mins followed by NADPH addition and measured after 40 mins by LC-MS/MS analysis relative to control; conditions: probe chlorzoxazone
[2] = Acute toxicity in C57BL/6 mouse assessed as animal death at 500 mg/kg,po observed after 14 days; format: organism-based; conditions: in vivo, 336 h, time 14 day
[3] = Acute toxicity in C57BL/6 mouse assessed as histopathological change in kidney at 500 mg/kg,po observed after 14 days by hematoxylin-eosin staining based analysis; format: organism-based; conditions: in vivo, 336 h, time 14 day
[4] = target: T1, Dual specificity protein kinase CLK4 (Homo sapiens, UniProt Q9HAZ1); assay: Inhibition of CLK4 (unknown origin) at 1 uM preincubated with enzyme for 10 mins followed by substrate and ATP addition measured after 60 mins by ADP-Glo reagent based assay relative to control; conditions: time 70.0 min
Target sequence in this assay (Q9HAZ1 whole entry, looked up): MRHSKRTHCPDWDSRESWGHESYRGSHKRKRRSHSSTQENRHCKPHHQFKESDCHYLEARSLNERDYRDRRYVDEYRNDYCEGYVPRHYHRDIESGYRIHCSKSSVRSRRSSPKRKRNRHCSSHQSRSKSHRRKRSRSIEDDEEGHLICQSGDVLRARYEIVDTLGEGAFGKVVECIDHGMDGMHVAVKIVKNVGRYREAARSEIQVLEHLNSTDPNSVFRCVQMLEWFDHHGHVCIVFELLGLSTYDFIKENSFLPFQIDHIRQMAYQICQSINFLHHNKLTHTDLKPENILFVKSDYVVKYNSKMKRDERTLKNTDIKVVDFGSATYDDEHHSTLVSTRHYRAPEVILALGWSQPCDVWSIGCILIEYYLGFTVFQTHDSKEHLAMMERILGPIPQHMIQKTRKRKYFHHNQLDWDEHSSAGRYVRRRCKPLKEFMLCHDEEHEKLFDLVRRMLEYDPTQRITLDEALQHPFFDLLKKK

CYP1A2 = CYP1A2 (Homo sapiens, UniProt P05177); assay: Inhibition of CYP1A2 in human liver microsomes using phenacetin as substrate at 10 uM preincubated for 10 mins followed by NADPH addition and measured after 40 mins by LC-MS/MS analysis relative to control; format: ADME, Microsome; conditions: probe phenacetin, time 50 min
[5] = Drug concentration in Sprague-Dawley rat brain at 10 mg/kg,po measured after 6 hrs by LC-MS/MS analysis; format: ADME, organism-based; conditions: read-out: Ct
[6] = Apparent volume of distribution in Sprague-Dawley rat at 2 mg/kg,iv measured upto 24 hrs by LC-MS/MS analysis; format: ADME, organism-based; conditions: in vivo, read-out: Vz
[7] = target: T1, Dual specificity protein kinase CLK4; assay: Inhibition of CLK4 (unknown origin) preincubated with enzyme for 10 mins followed by substrate and ATP addition measured after 60 mins by ADP-Glo reagent based assay
Target sequence in this assay (Q9HAZ1 whole entry): as the sequence (Q9HAZ1 whole entry, looked up) above

[8] = target: Dual specificity tyrosine-phosphorylation-regulated kinase 4 (Homo sapiens, UniProt Q9NR20); assay: Inhibition of DYRK4 (unknown origin) preincubated with enzyme for 10 mins followed by substrate and ATP addition measured after 60 mins by ADP-Glo reagent based assay
[9] = Metabolic stability in human plasma assessed as half life at 2 uM incubated upto 60 mins […] by LC-MS/MS analysis; format: ADME, cell-free
[10] = MRT (0 to t) in Sprague-Dawley rat at 2 mg/kg,iv measured upto 24 hrs by LC-MS/MS analysis; format: ADME, organism-based; conditions: in vivo
[11] = target: Dual specificity tyrosine-phosphorylation-regulated kinase 3 (Homo sapiens, UniProt O43781); assay: Inhibition of DYRK3 (unknown origin) preincubated with enzyme for 10 mins followed by substrate and ATP addition measured after 60 mins by ADP-Glo reagent based assay
Mus musculus [12] = assay: Antialzheimer activity in okadaic acid-induced cognitive impairment C57BL/6 mouse assessed as change in swimming speed at 10 to 30 mg/kg,po once daily for 2 weeks by Morris water maze test; format: functional, organism-based; conditions: dose 10-30 mg/kg
Mus musculus [13] = assay: Antialzheimer activity in okadaic acid-induced cognitive impairment C57BL/6 mouse assessed as decrease in escape latency at 10 to 30 mg/kg,po once daily for 2 weeks by Morris water maze test; format: functional, organism-based; conditions: dose 10-30 mg/kg
[14] = Cmax in Sprague-Dawley rat at 2 mg/kg,iv measured upto 24 hrs by LC-MS/MS analysis; format: ADME, organism-based; conditions: in vivo
CDK9/cyclin T1 = CDK9/cyclin T1 (Homo sapiens, UniProt P50750); assay: Inhibition of CDK9/Cyclin T1 (unknown origin) preincubated with enzyme for 10 mins followed by substrate and ATP addition measured after 60 mins by ADP-Glo reagent based assay; format: protein-complex assay
[15] = target: Dual specificity tyrosine-phosphorylation-regulated kinase 1B (Homo sapiens, UniProt Q9Y463); assay: Inhibition of DYRK1B (unknown origin) preincubated with enzyme for 10 mins followed by substrate and ATP addition measured after 60 mins by ADP-Glo reagent based assay
Mus musculus [16] = assay: Antialzheimer activity in okadaic acid-induced cognitive impairment C57BL/6 mouse assessed as increase in cognitive function at 10 to 30 mg/kg,po measured after 7 days by Morris water maze test; format: functional, organism-based; conditions: dose 10-30 mg/kg, time 7.0 day
HEK-293T = assay: Cytotoxicity against human HEK293T cells expressing human Tau P301L mutant at 20 uM incubated for 24 hrs by MTT assay; format: toxicity, cell-based
CYP3A4 = CYP3A4 (Homo sapiens, UniProt P08684); assay: Inhibition of CYP3A4 in human liver microsomes using midazolam as substrate at 10 uM preincubated for 10 mins followed by NADPH addition and measured after 40 mins by LC-MS/MS analysis relative to control; format: ADME, Microsome; conditions: probe midazolam, time 50 min
[17] = target: Dual specificity protein kinase CLK3 (Homo sapiens, UniProt P49761); assay: Inhibition of CLK3 (unknown origin) at 1 uM preincubated with enzyme for 10 mins followed by substrate and ATP addition measured after 60 mins by ADP-Glo reagent based assay relative to control; conditions: time 70.0 min
Sequence of Dual specificity protein kinase CLK3 (P49761 whole entry, looked up): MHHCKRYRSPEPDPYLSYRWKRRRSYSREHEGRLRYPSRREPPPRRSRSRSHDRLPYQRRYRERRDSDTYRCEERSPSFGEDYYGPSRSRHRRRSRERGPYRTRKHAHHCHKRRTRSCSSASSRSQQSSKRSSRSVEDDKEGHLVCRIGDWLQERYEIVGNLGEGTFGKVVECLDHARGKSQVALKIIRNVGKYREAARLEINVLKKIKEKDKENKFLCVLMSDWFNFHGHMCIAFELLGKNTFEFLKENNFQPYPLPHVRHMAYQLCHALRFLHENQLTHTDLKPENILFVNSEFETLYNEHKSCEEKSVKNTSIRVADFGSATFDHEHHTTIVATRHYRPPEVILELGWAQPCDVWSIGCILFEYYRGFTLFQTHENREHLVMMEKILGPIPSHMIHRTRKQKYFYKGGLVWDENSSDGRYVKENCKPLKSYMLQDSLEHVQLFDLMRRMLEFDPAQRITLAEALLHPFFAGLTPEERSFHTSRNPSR

Sequence of CDK9/cyclin T1 (O60563 whole entry): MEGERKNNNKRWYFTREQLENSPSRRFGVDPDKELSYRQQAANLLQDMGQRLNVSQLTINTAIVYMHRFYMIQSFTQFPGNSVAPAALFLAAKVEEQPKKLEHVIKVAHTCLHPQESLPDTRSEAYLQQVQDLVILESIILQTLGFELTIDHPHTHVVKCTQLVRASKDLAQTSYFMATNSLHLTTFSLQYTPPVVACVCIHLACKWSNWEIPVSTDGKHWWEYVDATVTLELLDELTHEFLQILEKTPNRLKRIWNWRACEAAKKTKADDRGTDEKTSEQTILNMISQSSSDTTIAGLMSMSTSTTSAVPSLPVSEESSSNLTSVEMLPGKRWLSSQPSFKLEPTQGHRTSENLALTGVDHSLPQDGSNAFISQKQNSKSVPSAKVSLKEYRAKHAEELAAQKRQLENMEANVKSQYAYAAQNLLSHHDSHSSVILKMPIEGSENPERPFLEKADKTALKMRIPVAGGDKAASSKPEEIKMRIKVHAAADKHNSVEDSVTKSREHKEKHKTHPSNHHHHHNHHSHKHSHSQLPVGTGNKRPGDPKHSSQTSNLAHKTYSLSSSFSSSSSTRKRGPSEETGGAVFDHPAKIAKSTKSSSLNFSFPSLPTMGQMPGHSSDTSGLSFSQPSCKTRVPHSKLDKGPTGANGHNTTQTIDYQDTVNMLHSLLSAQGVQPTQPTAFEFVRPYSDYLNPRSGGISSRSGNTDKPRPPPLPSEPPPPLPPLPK
Sequence of CDK9/cyclin T1 (P50750 whole entry): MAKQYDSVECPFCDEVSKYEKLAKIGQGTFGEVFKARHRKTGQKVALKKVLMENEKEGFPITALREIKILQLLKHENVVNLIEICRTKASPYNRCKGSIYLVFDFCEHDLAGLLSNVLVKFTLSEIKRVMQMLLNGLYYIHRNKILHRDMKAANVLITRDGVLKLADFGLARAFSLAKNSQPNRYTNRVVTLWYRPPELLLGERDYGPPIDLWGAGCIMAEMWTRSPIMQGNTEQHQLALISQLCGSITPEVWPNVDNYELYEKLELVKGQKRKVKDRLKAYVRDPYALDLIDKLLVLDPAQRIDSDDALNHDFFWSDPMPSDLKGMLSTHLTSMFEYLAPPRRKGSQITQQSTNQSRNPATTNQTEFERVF
Sequence of CYP1A2 (P05177 whole entry): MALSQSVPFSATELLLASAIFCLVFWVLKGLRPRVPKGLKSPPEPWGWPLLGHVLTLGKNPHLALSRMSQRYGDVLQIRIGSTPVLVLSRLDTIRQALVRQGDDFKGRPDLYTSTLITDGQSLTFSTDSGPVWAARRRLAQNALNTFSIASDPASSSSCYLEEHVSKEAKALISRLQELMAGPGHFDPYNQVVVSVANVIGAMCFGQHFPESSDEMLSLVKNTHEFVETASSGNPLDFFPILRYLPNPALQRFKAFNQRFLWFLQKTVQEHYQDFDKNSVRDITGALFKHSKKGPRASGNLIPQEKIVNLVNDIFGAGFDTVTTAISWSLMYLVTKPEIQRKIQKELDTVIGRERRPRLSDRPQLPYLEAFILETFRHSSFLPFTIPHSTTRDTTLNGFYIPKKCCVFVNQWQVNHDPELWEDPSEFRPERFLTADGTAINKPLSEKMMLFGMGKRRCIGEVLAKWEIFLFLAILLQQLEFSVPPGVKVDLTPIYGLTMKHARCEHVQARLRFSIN
Sequence of Dual specificity tyrosine-phosphorylation-regulated kinase 3 (O43781 whole entry): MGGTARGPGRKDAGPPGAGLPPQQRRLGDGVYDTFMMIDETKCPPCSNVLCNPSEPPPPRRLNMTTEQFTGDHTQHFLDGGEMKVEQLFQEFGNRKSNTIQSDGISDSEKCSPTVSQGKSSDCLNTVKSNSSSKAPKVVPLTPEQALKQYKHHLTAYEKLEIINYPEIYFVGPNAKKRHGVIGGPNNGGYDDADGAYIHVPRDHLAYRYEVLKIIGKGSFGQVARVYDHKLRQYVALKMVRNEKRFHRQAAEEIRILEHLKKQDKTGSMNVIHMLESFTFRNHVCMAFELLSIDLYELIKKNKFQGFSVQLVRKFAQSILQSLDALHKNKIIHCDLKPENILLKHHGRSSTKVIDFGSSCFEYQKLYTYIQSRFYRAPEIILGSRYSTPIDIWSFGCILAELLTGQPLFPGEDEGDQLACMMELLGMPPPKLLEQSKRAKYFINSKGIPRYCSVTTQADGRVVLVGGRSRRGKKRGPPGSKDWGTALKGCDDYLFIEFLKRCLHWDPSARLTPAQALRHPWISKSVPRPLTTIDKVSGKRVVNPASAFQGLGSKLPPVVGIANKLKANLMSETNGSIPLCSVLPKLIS
Sequence of CYP2E1 (P05181 whole entry): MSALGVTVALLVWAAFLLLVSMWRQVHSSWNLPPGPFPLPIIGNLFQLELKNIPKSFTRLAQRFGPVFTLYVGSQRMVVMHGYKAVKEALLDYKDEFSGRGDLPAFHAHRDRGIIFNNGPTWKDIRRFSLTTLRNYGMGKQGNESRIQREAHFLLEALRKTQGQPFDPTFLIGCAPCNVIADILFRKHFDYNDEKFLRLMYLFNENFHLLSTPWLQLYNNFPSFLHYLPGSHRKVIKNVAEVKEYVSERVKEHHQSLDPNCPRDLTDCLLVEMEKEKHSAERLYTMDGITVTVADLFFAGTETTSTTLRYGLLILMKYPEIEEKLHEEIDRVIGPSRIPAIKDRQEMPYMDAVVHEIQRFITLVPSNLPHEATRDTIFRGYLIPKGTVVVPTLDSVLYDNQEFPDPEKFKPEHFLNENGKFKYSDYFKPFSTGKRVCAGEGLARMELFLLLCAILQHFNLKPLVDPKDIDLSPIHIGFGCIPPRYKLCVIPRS
Sequence of Dual specificity tyrosine-phosphorylation-regulated kinase 1B (Q9Y463 whole entry): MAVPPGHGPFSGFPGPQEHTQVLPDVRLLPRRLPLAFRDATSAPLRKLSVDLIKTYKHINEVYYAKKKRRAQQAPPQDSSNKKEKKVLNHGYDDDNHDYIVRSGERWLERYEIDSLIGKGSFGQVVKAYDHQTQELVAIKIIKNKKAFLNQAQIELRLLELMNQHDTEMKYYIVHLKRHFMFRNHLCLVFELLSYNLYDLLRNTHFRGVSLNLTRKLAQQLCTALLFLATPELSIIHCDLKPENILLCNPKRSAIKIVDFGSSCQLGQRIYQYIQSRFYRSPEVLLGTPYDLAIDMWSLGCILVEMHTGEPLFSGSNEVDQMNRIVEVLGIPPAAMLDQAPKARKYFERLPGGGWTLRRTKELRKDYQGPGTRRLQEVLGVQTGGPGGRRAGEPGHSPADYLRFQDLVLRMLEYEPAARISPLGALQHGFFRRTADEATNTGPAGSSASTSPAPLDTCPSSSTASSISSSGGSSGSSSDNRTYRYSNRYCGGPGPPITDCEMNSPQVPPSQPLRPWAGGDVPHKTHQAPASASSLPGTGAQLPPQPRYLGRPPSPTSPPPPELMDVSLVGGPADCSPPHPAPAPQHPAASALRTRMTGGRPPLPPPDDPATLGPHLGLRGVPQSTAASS
Sequence of CYP3A4 (P08684 whole entry): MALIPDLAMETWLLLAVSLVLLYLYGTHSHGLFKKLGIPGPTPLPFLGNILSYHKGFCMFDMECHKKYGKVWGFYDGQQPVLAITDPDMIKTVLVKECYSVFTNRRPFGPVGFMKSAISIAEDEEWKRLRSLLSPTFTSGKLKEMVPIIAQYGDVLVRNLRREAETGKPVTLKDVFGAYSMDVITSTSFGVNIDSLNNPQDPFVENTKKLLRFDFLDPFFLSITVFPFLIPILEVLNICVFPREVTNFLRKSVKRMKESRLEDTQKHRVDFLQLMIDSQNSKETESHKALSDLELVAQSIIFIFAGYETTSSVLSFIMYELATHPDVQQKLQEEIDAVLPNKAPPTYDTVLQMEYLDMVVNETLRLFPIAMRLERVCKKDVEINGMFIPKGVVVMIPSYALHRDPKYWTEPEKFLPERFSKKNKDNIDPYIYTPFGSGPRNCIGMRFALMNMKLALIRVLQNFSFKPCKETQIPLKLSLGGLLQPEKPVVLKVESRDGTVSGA

Cc1ccc2c(-c3ccc4ncnc(N[C@H](CO)c5ccccc5)c4c3)c[nH]c2n1
Activity [1]: Non-Toxic
inhibition at 40 min, 10 µM (CYP2E1): 0.07%
Activity [2]: Non-Toxic
Activity [3]: Non-Toxic
inhibition [4]: 100%
inhibition at 40 min, 10 µM (CYP1A2): 61.9%
concentration at 6 h [5]: 13.1 ng/g
Vd [6]: 5.82 L/kg
IC50 [7]: 38.9 nM
IC50 [8]: 401 nM
half-life at 2 µM [9]: > 3.33 h
MRT last at 24 h [10]: 3.81 h
IC50 [11]: 17.5 nM
Activity (Mus musculus [12]): inactive
Activity (Mus musculus [13]): Active
Cmax [14]: 272 ng/mL
IC50 (CDK9/cyclin T1): > 10000 nM
IC50 [15]: 1.02 nM
Activity (Mus musculus [16]): Active
Activity (HEK-293T): Toxic
inhibition at 40 min, 10 µM (CYP3A4): 33.1%
inhibition [17]: 113%
